Data as given in ChEMBL document CHEMBL4699623 (J Med Chem, 2020).

Assays:
[1] = biological target: T1, Alpha-2A adrenergic receptor (Rattus norvegicus, UniProt P22909); test: Displacement of [3H]-clonidine from Sprague-Dawley rat alpha2 adrenergic receptor by radioligand binding assay
T1 sequence (P22909 whole entry): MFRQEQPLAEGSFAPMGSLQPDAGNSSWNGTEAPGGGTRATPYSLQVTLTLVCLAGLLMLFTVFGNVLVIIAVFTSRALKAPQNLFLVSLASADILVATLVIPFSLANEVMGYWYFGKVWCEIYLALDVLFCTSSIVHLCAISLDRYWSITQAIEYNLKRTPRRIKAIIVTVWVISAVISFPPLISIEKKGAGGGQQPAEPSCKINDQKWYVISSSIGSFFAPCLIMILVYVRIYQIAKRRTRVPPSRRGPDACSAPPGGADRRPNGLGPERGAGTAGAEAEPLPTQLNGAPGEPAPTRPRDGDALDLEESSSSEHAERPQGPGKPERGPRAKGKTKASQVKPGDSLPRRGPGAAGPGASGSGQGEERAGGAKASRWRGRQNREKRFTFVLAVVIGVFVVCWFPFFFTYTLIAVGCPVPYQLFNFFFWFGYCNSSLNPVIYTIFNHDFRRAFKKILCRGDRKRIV

[2] = biological target: T2, Phenylethanolamine N-methyltransferase (Homo sapiens) (UniProt P11086)
T2 sequence (whole entry): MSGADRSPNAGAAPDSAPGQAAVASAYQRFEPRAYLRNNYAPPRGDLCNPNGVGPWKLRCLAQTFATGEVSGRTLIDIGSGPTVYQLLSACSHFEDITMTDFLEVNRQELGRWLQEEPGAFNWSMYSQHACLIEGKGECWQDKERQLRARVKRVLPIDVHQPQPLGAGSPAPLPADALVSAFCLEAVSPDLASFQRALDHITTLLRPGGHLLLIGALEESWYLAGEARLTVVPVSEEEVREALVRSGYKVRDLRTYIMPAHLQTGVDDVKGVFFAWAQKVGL

[3] = biological target: T3, Phenylethanolamine N-methyltransferase (Homo sapiens, UniProt P11086); test: Competitive inhibition of C-terminal hexahistidine tag in human recombinant PNMT expressed in Escherichia coli assessed as inhibition constant using AdoMet as substrate in presence of 100 uM PEA as co-substrate by Sigma-plot analysis
T3 sequence (P11086 whole entry): T2 sequence (whole entry)

Structure (SMILES)	Ki [1]	Kis [2]	Ki [3]
NC(=O)C1Cc2ccccc2CN1 (stereo not given)	250 µM	31 µM	
Nc1ncnc2c1ncn2[C@@H]1O[C@H](CSCC[C@H](N)C(=O)O)[C@@H](O)[C@H]1O [S-ADENOSYLHOMOCYSTEINE]			14 µM
NCC1Cc2ccccc2CN1 (stereo not given)	1.5 µM	1.4 µM	
